The source of these data is patent US6548540B2, “Method of treating cancer using dithiocarbamate derivatives” (Charlotte-Mecklenburg Hospital Authority, priority 1998, dated 2003).

Experiment [1] relates to Prostate carcinoma CRL 1435 (PC-3). Kind of experiment: MTT proliferation assay, prostate carcinoma PC-3. In kind it is cell-based. The conditions noted are these: Homo sapiens, treatment initially, after 48 hours, 10% FBS, read-out: Mean Percent Inhibition of Growth. How it is done:
Human malignant cell lines were obtained from American Type Tissue Culture Collection (Rockville, Md.). Melanoma cells lines CRL 1585 and 1619 were cultured in RPMI 1640 (GIBCO-BRL, Life Technologies, Grand Island, N.Y.) with 10% FBS and passed with nonenzymatic Cell Dissociation Solution® (Sigma). The prostate adenocarcinoma cell line CRL 1435 (PC-3) was also cultured in RPMI 1640 with 10% FBS but passed with 0.05% trypsin and 0.53 mM EDTA. The squamous lung carcinoma NCI-H520 and the adenosquamous lung carcinoma NCI-H596 cell lines were grown in RPMI 1640 supplemented with 10% FBS, 10 mM HEPES and 1.0 mM sodium pyruvate and passed with trypsin/EDTA. The small cell lung carcinoma NCI-H82 was cultured as a suspension in RPMI 1640 with 10% FBS. All of the above were grown in a 37° C. humidified environment containing 5% CO2/air. The breast carcinoma cell line MDA-MB-453 was grown in a 37° C. humidified environment with free gas exchange with atmospheric air using Leibovitz's L-15 medium with 2 mM L-glutamine and 10% FBS and was passed with trypsin/EDTA.
The effect of disulfiram (0.15 to 5.0 μM), diethyldithiocarbamate (DDC, 1.0 μM) or PDTC (0.625 to 5.0 μM) on proliferation of malignant cell lines was studied in cultures stimulated with 10% FBS. Cell numbers were quantitated 24-72 hours later. In some experiments disulfiram or PDTC were added immediately after cells were plated. In other experiments, cells were plated and allowed to grow for 24-72 hours before fresh media with disulfiram or PDTC was added, and cell numbers were assayed 24-72 hours later. […]
Proliferation of cultured cells was quantitated using a previously reported calorimetric method based upon metabolic reduction of the soluble yellow tetrazolium dye 3-[4,5-dimethylthiazol]-2yl-2,5-diphenyl tetrazolium bromide (MTT) to its insoluble purple formazan by the action of mitochondrial succinyl dehydrogenase (See, e.g., S. J. Hirst, et al., “Quantifying proliferation of cultured human and rabbit airway smooth muscle in response to serum and platelet derived growth factor,” Am. J. Respir. Cell Mol. Biol. 7:574-581 (1992); R. Dashtaki, et al. R., supra; S. S. Brar, et al., “Requirement for reactive oxygen species in serum-induced and platelet-derived growth factor-induced growth of airway smooth muscle,” J. Biol. Chem. 274:20017-20026 (1999)). […] MTT-containing medium was removed, 0.5 ml dimethylsulfoxide (DMSO) was added to each well, and the absorbance of the solubilized purple formazan dye was measured at 540 nm. […]
A general note: Tetrazolium assays rely on reduction of a dye to a coloured formazan, in cell work by metabolically active cells.

Experiment [2] has as its system bcl-2. Kind of experiment: Immunoblot for bcl-2. The class given is cell-based, human. The conditions noted are these: cell lines studied; data not shown. How it is done: Cells were lysed and proteins were isolated and quantitated by immunoassay as previously detailed using 2 μg/ml of primary rabbit polyclonal antibodies against human bcl-2, p53, p21^WAF1/CiP1, cyclin A and cyclin B1, and peroxidase-labeled donkey polyclonal anti-rabbit IgG. Cells were placed on ice, washed twice with cold DPBS, scraped into 0.5 ml boiling buffer (10% [vol/vol] glycerol and 2% [wt/vol] sodium dodecyl sulfate [SDS] in 83 mM Tris, pH 6.8) and sheared by four passages through a pipette. Aliquots were removed for protein determination, using the BCA protein assay (Pierce). After 10% β-mercaptoethanol and 0.05% bromophenol blue were added, lysates were boiled for 5 min and stored at −80° C. until immunoblotting was performed. Proteins in defrosted samples were separated by SDS-polyacrylamide gel electrophoresis on 12% polyacrylamide gels (15 μg protein/lane) and electrotransferred to 0.45 μm Hybond ECL nitrocellulose membranes (Amersham Life Sciences) using the wet transblot method in transfer buffer (0.025 M Tris, 0.192 M glycine, 2.6 mM SDS, and 20%[vol/vol] methanol; pH 8.8) at 100 volts for 1 hour. […] Immunoblots were rinsed again as above and detected via an enhanced chemiluminescence method (ECL Western blotting detection system, Amersham Life Science, Buckinghamshire, England). […]

As usually defined, the inhibition is the share of the control response that was lost under treatment. Regarding `CCN(CC)C(=S)SSC(=S)N(CC)CC` [Disulfiram, tetraethylthiuram disulfide], in experiment [1] (disulfiram 0.625 μM), the inhibition at 0.625 µM came out at 6 ± 6%. The inhibition at 1.25 µM in experiment [1] (disulfiram 1.25 μM) came to 29 ± 5%. Moreover, the inhibition at 2.5 µM in experiment [1] (disulfiram 2.5 μM) came to 48 ± 2%. In addition, the inhibition at 5 µM in experiment [1] (disulfiram 5.0 μM) stood at 86 ± 2%. The “expression of bcl-2” value in experiment [2] is on record as “no consistent effect”.
